EP0272929B1, “Enkephalinase for therapeutic use” (GENENTECH, INC., priority 1986, dated 1988)
Read-outs that look alike come from different tables or passages of the source.

Tests used:
[1] = test system: ferret trachea; conditions: for order of potency for stimulation of secretion: each tachykinin 10⁻⁵M; for potentiation of substance P-induced secretion: substance P 10⁻⁶M
Experimental: (§1) Mucus secretion from tracheal segments of 36 ferrets was measured using methods described earlier (Borson, D.B. et al., J. Appl. Physiol. 57: 457-466 [1984]). Briefly, after anesthetizing adult male ferrets weighing 1-2 kg with sodium pentobarbital (45-60 mg/kg, ip), the trachea was removed and washed in medium 199/Earles HCO₃ bubbled with 95% O₂ - 5% CO₂ at 38°C. Tracheal segments were mounted in plastic Ussing-type chambers connected to perfusion chambers made of siliconized glass (MRA Inc., Clearwater, Florida). After exposing both sides to medium 199, 0.167 mCi Na₂.³⁵SO₄ was added to the submucosal side. At 15 minute intervals, the medium was drained from the luminal side and replaced with fresh unlabeled medium. Each sample was placed in dialysis tubing (Spectropore no. D1615-1; MW cutoff: 12-14,000) and exhaustively dialyzed with the rest of the samples from the experiment against at least 6 changes of distilled water (4 liters each) containing excess unlabeled SO₄ and sodium azide (10 mg/L) to prevent bacterial degradation of the macromolecules. After dialysis, the bound radioactivity of each sample was determined using a Beckman Instruments beta counter (model LS 7500). Molecular weight profiles of the materials secreted were determined by first desalting samples using a Sephadex G-50 column, then concentrating carbohydrate-containing molecules on DEAE Sephacel, and determining apparent molecular size under denaturing conditions (4 M guanidine, 10mM 2-mercaptoethanol, 0.1% Triton X-100) using a Sepharose CL-6B column.
(§2) Characteristics of the response to substance P including the time course, concentration dependence, and reproducibility were studied. Tracheal segments from 8 ferrets were incubated in the presence of radiolabel for 3 hours to which were added different concentrations of substance P (10⁻⁹M to 10⁻⁵M; Peninisula Labs, Belmont, CA). […] All treatments were randomized with regard to the site of sampling in the trachea to eliminate systematic bias.
(§3) The effects of endogenous proteinases were studied by incubating at least two tissues from each of 4 ferrets for 30 minutes in medium for 2.5 hours and adding a combination of nine (9) proteinase inhibitors to the submucosal side of each tissue (10 µg/mL each). The inhibitors used included leupeptin, antipain, pepstatin A, thiorphan, substance P₁₋₉ (Growcott, J.W. and Tarpey, A.V. Eur. J. Pharm. 84: 107-109 [1982]) and the angiotensin converting enzyme inhibitor, teprotide (Peninsula labs), aprotonin, BSA, and bacitracin (Sigma). Thirty minutes after addition of inhibitor, substance P (10⁻⁶M) was added to the submucosal side. […] The mean responses to substance P in the presence of inhibitors was compared with the mean responses of two control segments from each of the same animals.
(§4) The concentration-dependence of enkephalinase inhibition was explored by adding thiorphan in different concentrations to different tissues. To determine whether the secretory effect of substance P might be mediated indirectly via the release of endogenous enkephalins, we tested the effects of met-enkephalin (Peninsula Labs) on secretory responses.
(§5) We calculated the flux of bound SO₄ (^JSO₄) from the cpm in the dialyzed samples according to the equation modified from (Corrales, R.J. et al., J. Appl. Physiol. 56: 1076-1082 [1985]): ()^J SO4 (pmol SO4 (/cm)^2 /h) =(((cpm recovered/15 min x 4) x (811 x 10)^6 pmol cold SO4 /5mL))/((0.5 cm)^2 x cpm in 5.0 mL of hot-side medium) [formula]

[2] = test system: ferret tracheal smooth muscle; experiment: Electrical field stimulation-induced contraction of isolated tracheal smooth muscle; assay type: cell-based; conditions: inhibitor 10⁻⁵ M, 15 min; tachykinins 10⁻⁷ M
Experimental: (§6) The tracheal rings were connected to strain gauges (Grass FT03) for continuous recording of isometric tension, and the rings were placed between two rectangular platinum electrodes (6 x 40 mm) for electrical field stimulation. The rings were initially stretched to a tension of 20 g for 30 seconds and were then allowed to equilibrate for 1 hour while resting tension was adjusted to 4 g (Skoogh, B-E. et al., J. Appl. Physiol. 53: 253-257 [1982]). During equilibration, the medium was changed every 15 minutes. […] Id.
Increasing concentrations of leu-thiorphan (10⁻¹¹ to 10⁻⁴ M) were added and the stimuli repeated to determine whether leu-thiorphan modulated electrical field stimulation-induced contractions. […] After determining control responses to electrical field stimulation (5 Hz), leu-thiorphan (10⁻⁵ M; 15 min) was added, the stimulus repeated, (DPro²,DTrp^7,9)substance P, the substance P antagonist (10⁻⁵ M; 15 min; Peninisula Labs) was added, and the stimulus was repeated.
(§7) Data were expressed as mean ± SE. For the dose-response curves to tachykinins the means between two groups at each concentration were analyzed by an unpaired t test. For the study of electrical field stimulation, responses were compared by one way analysis of variance and Newman-Keuls multiple range test. Significance was accepted at p<0.05.

[3] = test system: ferret trachea; experiment: Mucus secretion from ferret tracheal segments in Ussing-type chambers (release of 35SO4-labeled macromolecules, flux of bound SO4); assay type: cell-based; conditions: for potentiation of substance P-induced secretion: 10 µg/ml each, bestatin 10⁻⁵M (Fig. 4)
Experimental: as §1, §2, §3, §4, §5

[4] = test system: ferret tracheal smooth muscle; experiment: Isometric tension of isolated tracheal smooth muscle rings (contraction by peptides, effect of inhibitors); assay type: cell-based
Experimental: (§8) Twenty-seven ferrets were anesthetized with pentobarbital sodium (45-60 mg/kg, i.p.), and the trachea were removed. Transverse rings (8 mm long) were cut from the trachea and mounted in glass chambers filled with 14 ml of Krebs-Henseleit solution of the following composition (in mMoles/L): NaCl 118, KCl 5.9, CaCl₂ 2.5, MgSO₄ 1.2, NaH₂PO4 1.2, NaHCO₃ 25.5, glucose 5.6, 0.1% bovine serum albumin, and penicillin-streptomycin (100 Units/ml). The soluiton was maintained at 37°C and was aerated continuously in a mixture of 95% O₂-5% CO₂, which produced a pH of 7.4. Six tracheal rings were studied concurrently.
as §6
The responsiveness to substance P (using concentrations ranging from 10⁻⁸ M to 10⁻⁵ M) and to leu-thiorphan and cumulative dose-response curves to substance P (Peninsula Labs) were obtained. Each succeeding concentration of substance P was added after contraction reached a plateau. After completion of the first dose-response curve to substance P, leu-thiorphan (10⁻⁵ M, Squibb Pharmaceutical) was added to the organ bath. Following a 15 minute incubation, a second dose-response curve to substance P was obtained.
The N-terminal fragment, substance P₁₋₉ was studied because enkephalinase cleaves substance P between the 9 and 10 positions (Matsas, R. et al., Proc. Natl. Acad. Sci. [USA] 80: 3111-3115 [1983]), generating that fragment. (10⁻⁵ M Peninsula Labs). Experiments were also carried out with (DPro², DTrp^7,9)-substance P (10⁻⁵ M) (Peninsula Labs), a substance P antagonist (Hakanson, R. et al., Br. J. Pharmac. 77: 697-700 [1982]) by adding the antagonist after the response to substance P (10⁻⁶ M) and leu-thiorphan (10⁻⁵ M) reached a plateau.
as §7, with “substance P,” for “tachykinins”, “compared” for “analyzed”, “a paired” for “an unpaired”, “studies” for “study”, “P < 0.05. […]” for “p<0.05.”

[5] = test system: ferret tracheal smooth muscle; experiment: as above; assay type: cell-based; remark: listed apart in the source
Experimental: as §8
as §6, with “Id. […]” for “Id.”
The methods used to excise tracheal tissue, mount and electrically stimulate the tissue were identical to those described above. The responses to tachykinins and to leu-thiorphan, cumulative dose-response curves to substance P (Peninsula Labs), neurokinin A (Peninisula Labs) and neurokinin B (Peninsula Labs) were obtained using concentrations ranging from 10⁻¹¹ M to 10⁻⁵ M in the presence and absence of leu-thiorphan (10⁻⁵ M, 15 min; Squibb Pharmaceutical). Each succeeding concentration of tachykinin was added after the previous contraction had reached a plateau.
as §7
The methods used were the same as those described in Example 7.

[6] = test system: neutrophils; experiment: Neutrophil chemotaxis assay (Chemotaxis kit, 5 µm filter); assay type: cell-based; conditions: Homo sapiens, Formyl Met-Leu-Phe 1µM + inhibitor 10µM, 1 hr at 37°C, read-out: Neutrophil Migration (% control)
Experimental: As assay was used to test the effects of enkephalinase on neutrophil chemotaxis. A commercially available chemotactic assay (Chemotaxis kit, Neuroprobe, Cabin John, Md) was used and modified as described below. Neutrophils were isolated by sedimentation over dextran from peripheral blood of human donors. A sample of neutrophils is placed over a 5 µm filter in a chemotaxis chamber containing aliquots of test material. Three to six replicates were run for each test for 1 hr. at 37°C. The number of migrating neutrophils in each chamber is then counted. The chemotactic potential is evaluated by the number of cells in five selected unit areas.
Various specific inhibitors of enkephalinase were used to determine the role of enkephalinase in chemotaxis of neutrophils. Chemotactic activity is reported as the total number of neutrophils observed in five fields of the kit membrane under 100X magnification. Thus, the larger the number the more chemotactic was a particular test composition.

[7] = presence of phosphoramidon 10⁻⁵M
[8] = inhibitor 10⁻⁴M, substance P 10⁻⁶M

physalaemin
order of potency for stimulation of secretion ([1]; absence of phosphoramidon): substance P> physalaemin=eledoisin=kassinin > neurokinin A | order of potency for stimulation of secretion [1, 7]: Substance P=neurokinin A=physalaemin=eledoisin=kassinin>neurokinin B

CC(C)C[C@H](NC(=O)[C@@H](O)[C@H](N)Cc1ccccc1)C(=O)O [bestatin]
potentiation of the response to electrical field stimulation in the presence of substance P, neurokinin A or neurokinin B [2]: did not | potentiation of substance P-induced secretion ([3]; substance P 10⁻⁶M): failed to potentiate substance P-induced secretion

bacitracin
potentiation of substance P-induced secretion ([1]; 10 µg/ml each, bestatin 10⁻⁵M (Fig. 4)): failed to potentiate substance P-induced secretion

teprotide
potentiation of substance P-induced secretion ([1]; inhibitor 10⁻⁴M (Fig. 4), not significantly different from control): 49 ± 39%

eledoisin
order of potency for stimulation of secretion ([1]; absence of phosphoramidon): substance P> physalaemin=eledoisin=kassinin > neurokinin A | order of potency for stimulation of secretion [1, 7]: Substance P=neurokinin A=physalaemin=eledoisin=kassinin>neurokinin B

CC(=O)N[C@@H](CC(C)C)C(=O)N[C@@H](CC(C)C)C(=O)N[C@H](C=O)CCCNC(=N)N [leupeptin]
potentiation of the response to electrical field stimulation in the presence of substance P, neurokinin A or neurokinin B [2]: did not | potentiation of substance P-induced secretion ([3]; substance P 10⁻⁶M): failed to potentiate substance P-induced secretion

CN1[C@@H]2CC[C@H]1C[C@@H](OC(=O)C(CO)c1ccccc1)C2 (some centres unmarked) [atropine]
effect on SP plus leu-thiorphan-induced contractions [4]: decreased SP plus leu-thiorphan-induced contractions significantly

C[C@H](CS)C(=O)N1CCC[C@H]1C(=O)O [captopril]
potentiation of the response to electrical field stimulation in the presence of substance P, neurokinin A or neurokinin B [2]: did not | activation at 100 µM ([3]; Mustela putorius, inhibitor 10⁻⁴M (Fig. 4), substance P 10⁻⁶M, not significantly different from control, read-out: potentiation of substance P-induced secretion): 44 ± 27%

bradykinin (RPPGFSPFR; Bradykinin; UniProt P01042 381-389, looked up)
contraction ([5]; 10⁻¹¹ to 10⁻⁵ M): caused contraction in a dose-dependent fashion | relative contractile potency ([5]; absence of enkephalinase inhibitors): more potent that lys-bradykinin | relative contractile potency ([5]; presence of Leu-thiorphan): equally potent

O=C(O)CNC(=O)C(CS)Cc1ccccc1 (centres unmarked) [thiorphan]
activity at 10 µM [6]: 29 ± 19% | increase in flux of bound SO₄ by the inhibitor by itself ([3]; 10⁻⁴M, submucosal side): 57 ± 17.8 pmol bound SO₄/cm²/h | minimal effective concentration ([3]; Mustela putorius, substance P 10⁻⁶M, read-out: threshold of potentiation of the secretory response to substance P): ~0.01 µM | response to substance P, % of control [3, 8]: 502 ± 147% | substance P-induced increase in flux of bound SO₄ in inhibitor-pretreated tissue [3, 8]: 268.0 ± 58.0 pmol/cm²/h | sum of the individual effects as % of the response to substance P in the presence of the inhibitor ([3]; test of additivity): 51% | sum of the individual effects of substance P and inhibitor ([3]; test of additivity): 136.2 pmol bound SO₄/cm²/h

CC(C)C[C@H](NP(=O)(O)O[C@@H]1O[C@@H](C)[C@H](O)[C@@H](O)[C@H]1O)C(=O)N[C@@H](Cc1c[nH]c2ccccc12)C(=O)O [phosphoramidon]
activity at 10 µM [6]: 65% | effect on secretory responses to each tachykinin ([3]; 10⁻⁵M, 30 min pretreatment, tachykinins 10⁻⁵M): significantly increased | substance P-induced increase in flux in inhibitor-treated tissues ([3]; inhibitor 10⁻⁵M, substance P 10⁻⁶M): 357 ± 91.9 pmol bound SO₄/cm²/h

kassinin
order of potency for stimulation of secretion ([1]; absence of phosphoramidon): substance P> physalaemin=eledoisin=kassinin > neurokinin A | order of potency for stimulation of secretion [1, 7]: Substance P=neurokinin A=physalaemin=eledoisin=kassinin>neurokinin B

CSCC[C@H](NC(=O)[C@H](CC(C)C)NC(=O)CNC(=O)[C@H](Cc1ccccc1)NC(=O)[C@H](Cc1ccccc1)NC(=O)[C@H](CCC(N)=O)NC(=O)[C@H](CCC(N)=O)NC(=O)[C@@H]1CCCN1C(=O)[C@H](CCCCN)NC(=O)[C@@H]1CCCN1C(=O)[C@@H](N)CCCNC(=N)N)C(N)=O [substance P]
flux of bound SO₄ above the pre-stimulus baseline ([1]; 10 µM): 155 ± 42%
